Results on 32 compounds are retold here after PubChem BioAssay AID1959 (Broad Institute, 2009).

Active and inactive are the calls of the source.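 The calls were made as follows: active = growth-inhibition EC50 no more than tenfold above the top tested dose; inconclusive = flat fit between 30% and 70% inhibition, or unreliable fit; inactive = EC50 more than tenfold above the top tested dose.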

The test system of the assay is E. coli NEB5alpha growth, BacTiter-Glo luminescence, 4 h. The assay is described as follows: Escherichia coli growth inhibition, dose response, counter-screen for MEX-5/POS-1 RNA-binding inhibitor project, luminescence, NEB5alpha (AID 1959).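 Also: pUC19-transformed ampicillin-resistant cells grown in LB with ampicillin.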 Background: Counterscreens check selectivity or assay interference.
By EC50 is commonly meant the concentration at which the effect is half-maximal. `Cc1ccccc1N=C1NC(=O)/C(=C/c2cccn2-c2cccc(C(=O)O)c2)S1`: the EC50 was > 11 µM (inactive). The same measure for `Cc1cc(/C=C2\C(=O)NC(=O)N(c3ccc(Br)cc3)C2=O)c(C)n1-c1cc(C(=O)O)cc(C(=O)O)c1`: > 11 µM (inactive); for `Oc1ccc(/C=N/Nc2ccc(Cl)nn2)c(O)c1O`: > 11 µM (inactive); for `CCCN1C(=O)/C(=C/c2ccc(C)o2)SC1=Nc1ccc(OC)cc1`: > 11 µM (inactive). For `COc1cc(S(=O)(=O)Nc2ccc(C)cc2)ccc1N=Cc1c(C)c(C#N)c(=O)n(C)c1O`, the EC50 is > 11 µM (inactive). The same measure for `COc1cc2c3nnc(-c4ccccc4)c-3cn(Cc3ccc(F)cc3)c2cc1OC`: > 11 µM (inactive). Consider `CCCCC1=CC2=CC(=O)C(C)(OC(=O)c3cccs3)C(=O)C2=CO1` (configuration not stated), for which the EC50 is > 11 µM (inactive).

For the compound `CCC(=O)OC1(C)C(=O)C=C2C=C(CCCCNC(=O)OC(C)(C)C)OC=C2C1=O` (configuration not stated), the EC50 was > 11 µM (inactive). In the case of `COc1ccc(OC)c(N=Cc2c(O)c3ccccc3oc2=O)c1`, the EC50 was > 11 µM (inactive). With `O=c1[nH]c(=O)n(Cc2ccccc2)c(O)c1C=Nc1ccc(CN2CCOCC2)cc1`, the EC50 was > 11 µM (inactive). On to `O=C1c2cccc3cccc(c23)C(=O)N1/N=C/c1c(O)n(-c2ccccc2)c(=O)[nH]c1=O`, for which the EC50 is > 11 µM (inactive). For the compound `CCCSc1nnc2nc3c(nn12)c1ccccc1n3C`, the EC50 is > 11 µM (inactive). For `CCOc1cc(/C=C2\C(=O)NC(=O)N(CCc3ccc(F)cc3)C2=O)ccc1O` the value was > 11 µM (inactive); for `Clc1cccc(CSc2nc3ccncc3[nH]2)c1`, > 11 µM (inactive); for `C=CCSc1nnc(N2C(=O)C(O)=C(C(=O)c3ccco3)C2c2ccc(F)cc2)s1` (configuration not stated), > 11 µM (inactive). The same measure for `Cc1ccc2cc(/C=C3\N=C(c4ccccc4)OC3=O)c(N3CCOCC3)nc2c1`: > 11 µM (inactive); for `Cn1c(=O)c(N)c2c3c(c(Br)ccc31)C(=O)c1ccccc1-2`: > 11 µM (inactive); for `COc1ccc2nc3ccccc3nc2c1NC(=O)c1ccccc1Cl`: > 11 µM (inactive). With `O=C(N/N=C/c1c(O)n(Cc2ccco2)c(=O)[nH]c1=O)c1ccccc1O`, the EC50 is > 11 µM (inactive). In the case of `COC(=O)c1ccc(COc2ccc(/C=C(\C#N)c3nc4ccccc4[nH]3)cc2OC)o1`, the EC50 was > 11 µM (inactive). Turning to `Oc1ccc(-c2cn3c(n2)SCC3)cc1O`, the EC50 was > 11 µM (inactive). Turning to `CSCC(C)N1CCC(n2nccc2NC(=O)CCCc2ccccc2)CC1` (configuration not stated), the EC50 is > 11 µM (inactive). Regarding `Cc1cc(C(F)(F)F)c2c(N)c(C(=O)Nc3cc(C)on3)sc2n1`, the EC50 is > 11 µM (inactive). For `COc1ccc(N2C(=O)C(Cl)=C(Nc3ccccc3O)C2=O)cc1`, the EC50 was > 11 µM (inactive).

For `Cc1cc(/C=C2\C(=O)NC(=O)N(c3ccc(F)cc3)C2=O)c(C)n1-c1cccc(C(=O)O)c1`, the EC50 was > 11 µM (inactive). Take `C=CCN1C(=O)NC(=O)/C(=C/c2c(CCN(C)C(=O)c3ccccc3)cc3c(c2OC)OCO3)C1=O`: the EC50 is > 11 µM (inactive). The same measure for `Cc1ccc(C(=O)C2=C(O)C(=O)N(Cc3ccco3)C2c2ccc(N(C)C)cc2)o1` (configuration not stated): > 11 µM (inactive); for `CN(C)C1C(=O)C(C(N)=O)=C(O)C2(O)C(=O)C3=C(O)c4c(O)cccc4C(C)(O)C3C(O)C12` (configuration not stated): 8.68 µM; for `O=C(/C=C/c1ccc([N+](=O)[O-])o1)NNC(=O)c1ccc(F)cc1`: 0.232 µM. For `CCN1C(=O)C(=Cc2ccc(N3CCOCC3)o2)C(=O)N(CC)C1=S` the value was > 11 µM (inactive); for `Nc1ccc(S(=O)(=O)NNC(=O)C(=O)NNc2ccccn2)cc1`, > 11 µM (inactive). `CN1C(=O)NC(c2ccccc2[N+](=O)[O-])C2=C1CCCC2=O` (configuration not stated): the EC50 is > 11 µM (inactive).
